Measurements: patent US8153413B2, “High alkaline protease and use thereof” (Japan Agency for Marine-Earth Science and Technology, priority 2004, dated 2012)
“Also recorded” adds a separate entry of the source. Where two headings read alike, the source gives them in different places. * marks the point of attachment. butyroxycarboxy = not defined here; pNA = O=[N+]([O-])c1ccc(N*)cc1

Tests used:
Format in all cases: biochemical, Alkaliphillus transvaalensis
alkaline protease ALTP [1] = conditions: for Residual activity (%): pH 10
alkaline protease ALTP [2] = assay: Influence of inhibitors on residual activity
Description: Each inhibitor was added to 20 mmol/L phosphate buffer (pH 7) at a predetermined concentration, and the invention enzyme was added thereto. The solution was warmed at 30° C. for 20 minutes. Subsequently, the resulting solution was approximately diluted with 50 mmol/L borate buffer (pH 10), and the residual activity was measured.

alkaline protease ALTP [3] = assay: Influence of surfactants on residual activity (casein method); conditions: for Residual activity (%): pH 9.0, 40° C., 4 hours, time 0 = 100%
Description: Influence of surfactants on alkaline protease ALTP of the invention was examined. That is, the invention enzyme solution was added to 0.1 mol/L Tris-hydrochloride buffer (pH 9.0), and each of various surfactants shown in Table 4 was added to the solution. The treatment was conducted at 40° C. for 4 hours. Subsequently, the solution was properly diluted with 50 mmol/L borate buffer (pH 10.5) containing 2 mmol/L calcium chloride, and the residual activity was measured by the casein method. The residual activity was expressed in terms of a relative value when an activity value (treatment time 0 minute) immediately after addition of the enzyme to each sample was defined as 100%.

alkaline protease ALTP [4] = assay: Action on synthetic substrates (synthetic substrate method, p-nitroaniline release); conditions: for Relative activity (%): activity to AAPF = 100%, pH 10.0, 30° C., 10 minutes
Description: 0.9 ml of 100 mmol/L borate buffer (pH=10.0, containing 2 mmol/L calcium chloride) was mixed with 0.05 ml of a 50 mmol/L synthetic substrate solution (solution obtained by dissolving a p-nitroanilide derivative of an oligopeptide in dimethyl sulfoxide), and the mixture was warmed at 30° C. for 5 minutes. Then, 0.05 ml of the enzyme solution was added, and a reaction was conducted at 30° C. for 10 minutes. 2 ml of a 5% (w/v) citric acid solution was added to terminate the reaction. Absorbance at 420 nm was measured with a spectrophotometer to quantify liberated p-nitroaniline.
Herein, one unit (PU) of the enzyme referred to an amount of an enzyme required to liberate 1 μmol of p-nitroaniline for 1 minute under the foregoing reaction conditions.
Reactivity of alkaline protease ALTP of the invention with each synthetic substrate was measured using synthetic oligopeptide substrates shown in Table 6.
0.9 ml of 100 mmol/L borate buffer (pH=10.0, containing 2 mmol/L calcium chloride) was mixed with 0.05 ml of a 50 mmol/L synthetic substrate solution shown in Table 6. After the mixture was warmed at 30° C. for 5 minutes, 0.05 ml of the enzyme solution was added thereto, and the reaction was conducted at 30° C. for 10 minutes. 2 ml of a 5% (w/v) citric acid solution was added to terminate the reaction. Absorbance at 420 nm was measured using a spectrophotometer, and p-nitroaniline liberated was quantified.
Target sequence in this assay (as listed by the source): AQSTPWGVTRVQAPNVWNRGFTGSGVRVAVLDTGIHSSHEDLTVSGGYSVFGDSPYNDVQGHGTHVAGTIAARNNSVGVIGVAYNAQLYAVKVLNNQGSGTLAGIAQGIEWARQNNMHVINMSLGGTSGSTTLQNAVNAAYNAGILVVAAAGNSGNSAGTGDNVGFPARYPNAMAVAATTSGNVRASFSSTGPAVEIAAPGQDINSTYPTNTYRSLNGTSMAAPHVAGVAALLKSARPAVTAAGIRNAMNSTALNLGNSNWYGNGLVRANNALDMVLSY

[5] = inhibitor 0.1 mM, pH 7, 30° C., 20 minutes
[6] = inhibitor 1.0 mM, pH 7, 30° C., 20 minutes

[Ba+2].[Cl-].[Cl-] [BaCl2]
inhibition by metal ion (alkaline protease ALTP [1]; concentration of 1 mM): not inhibited
Residual activity (%) (alkaline protease ALTP [1]): 100%

CC(C)C[C@H](NC(=O)[C@@H](O)[C@H](N)Cc1ccccc1)C(=O)O [Bestatin]
Residual activity (%) (alkaline protease ALTP [2]; [5]): 106%

[Ca+2].[Cl-].[Cl-] [CaCl2]
inhibition by metal ion (alkaline protease ALTP [1]; concentration of 1 mM): not inhibited
Residual activity (%) (alkaline protease ALTP [1]): 118%

[Cl][Cd][Cl] [CdCl2]
inhibition by metal ion (alkaline protease ALTP [1]; concentration of 1 mM): not inhibited
Residual activity (%) (alkaline protease ALTP [1]): 100%

CC(C)C[C@H](NC(=O)[C@@H](NC(=O)N[C@@H](Cc1ccccc1)C(=O)O)[C@@H]1CCN=C(N)N1)C(=O)N[C@H](C=O)Cc1ccccc1 [Chymostatin]
inhibition (alkaline protease ALTP [2]; 30 ppm): completely inhibited
Residual activity (%) (alkaline protease ALTP [2]; inhibitor 30 ppm, pH 7, 30° C., 20 minutes): 0%

[Cl-].[Cl-].[Co+2] [CoCl2]
inhibition by metal ion (alkaline protease ALTP [1]): not inhibited
Residual activity (%) (alkaline protease ALTP [1]): 92%

[Cl][Cu][Cl] [CuCl2]
inhibition by metal ion (alkaline protease ALTP [1]; concentration of 1 mM): not inhibited
Residual activity (%) (alkaline protease ALTP [1]): 109%

O=C(O)CN(CCN(CC(=O)O)CC(=O)O)CC(=O)O [EDTA, ethylenediamine tetraacetic acid]
inhibition (alkaline protease ALTP [2]; 100 mM): little inhibited; also recorded: not inhibited
Residual activity (%) (alkaline protease ALTP [2]; inhibitor 100 mM, pH 7, 30° C., 20 minutes): 100%

[Cl][Fe][Cl] [FeCl2]
Residual activity (%) (alkaline protease ALTP [1]): 120%

[Cl][Fe]([Cl])[Cl] [FeCl3]
Residual activity (%) (alkaline protease ALTP [1]): 110%

[Cl][Hg][Cl] [HgCl2]
inhibition by metal ion (alkaline protease ALTP [1]; concentration of 1 mM): inhibited
Residual activity (%) (alkaline protease ALTP [1]): 15%

O=C(O)CI [Iodine acetate]
Residual activity (%) (alkaline protease ALTP [2]; pH 7): 104%

[Cl-].[K+] [KCl]
inhibition by metal ion (alkaline protease ALTP [1]; concentration of 1 mM): not inhibited
Residual activity (%) (alkaline protease ALTP [1]): 111%

CC(=O)N[C@@H](CC(C)C)C(=O)N[C@@H](CC(C)C)C(=O)N[C@H](C=O)CCCNC(=N)N [Leupeptin]
Residual activity (%) (alkaline protease ALTP [2]; [5]): 100%

[Cl-].[Li+] [LiCl2]
inhibition by metal ion (alkaline protease ALTP [1]; concentration of 1 mM): not inhibited
Residual activity (%) (alkaline protease ALTP [1]): 114%

[Cl-].[Cl-].[Mg+2] [MgCl2]
inhibition by metal ion (alkaline protease ALTP [1]; concentration of 1 mM): not inhibited
Residual activity (%) (alkaline protease ALTP [1]): 105%

[Cl][Mn][Cl] [MnCl2]
inhibition by metal ion (alkaline protease ALTP [1]; concentration of 1 mM): not inhibited
Residual activity (%) (alkaline protease ALTP [1]): 113%

O=C1CCC(=O)N1Br [N-bromosuccinic acid imide]
Residual activity (%) (alkaline protease ALTP [2]; [6]): 104%

[Cl-].[Na+] [NaCl]
inhibition by metal ion (alkaline protease ALTP [1]): not inhibited
Residual activity (%) (alkaline protease ALTP [1]): 112%

[Cl][Ni][Cl] [NiCl2]
inhibition by metal ion (alkaline protease ALTP [1]; concentration of 1 mM): not inhibited
Residual activity (%) (alkaline protease ALTP [1]): 94%

O=S(=O)(F)Cc1ccccc1 [PMSF, phenylmethanesulfonyl fluoride]
inhibition (alkaline protease ALTP [2]; 1 mM): completely inhibited
Residual activity (%) (alkaline protease ALTP [2]; [6]): 0%

[Cl][Pb][Cl] [PbCl2]
inhibition by metal ion (alkaline protease ALTP [1]; concentration of 1 mM): not inhibited
Residual activity (%) (alkaline protease ALTP [1]): 115%

[Cl][Sn][Cl] [SnCl2]
inhibition by metal ion (alkaline protease ALTP [1]; concentration of 1 mM): not inhibited
Residual activity (%) (alkaline protease ALTP [1]): 108%

CCCCCCCCCCCCOS(=O)(=O)[O-].[Na+] [Sodium dodecyl sulfate]
inhibition of activity by surfactant (alkaline protease ALTP [3]): not inhibited
Residual activity (%) (alkaline protease ALTP [3]; surfactant 10.0%): 104%
inhibition (alkaline protease ALTP [2]; 1 mM): little inhibited

[Cl-].[Cl-].[Zn+2] [ZnCl2]
inhibition by metal ion (alkaline protease ALTP [1]; concentration of 1 mM): not inhibited
Residual activity (%) (alkaline protease ALTP [1]): 121%

O=C(O)c1cc[c]([Hg][Cl])cc1 [p-chloromercuribenzoic acid]
inhibition (alkaline protease ALTP [2]; 1 mM): little inhibited

NC(N)=O [urea]
inhibition (alkaline protease ALTP [2]; 0.5 M): little inhibited

Linear sodium alkylbenzene sulfonate
inhibition of activity by surfactant (alkaline protease ALTP [3]): not inhibited
Residual activity (%) (alkaline protease ALTP [3]; surfactant 1.0%): 98%

N- succinyl-Gly-Gly-Phe-p-nitroanilide (GGF; HELM PEPTIDE1{[O=C(O)CCC(=O)[*:2]].G.G.F.[O=[N+]([O-])c1ccc(N[*:1])cc1]}$$$$V2.0; SMILES O=C(O)CCC(=O)NCC(=O)NCC(=O)N[C@@H](Cc1ccccc1)C(=O)Nc1ccc([N+](=O)[O-])cc1) [synthetic substrate]
activity to further synthetic substrates (alkaline protease ALTP [4]): showed activity

N-carboxybenzoxy-Phe-Val-Arg-p-nitroanilide (carboxybenzoxy-Phe-Val-Arg-pNA) [Z-FVR, synthetic substrate]
activity to further synthetic substrates (alkaline protease ALTP [4]): showed activity

N-glutaryl-Ala-Ala-Pro-Leu-p-nitroanilide (AAPL; HELM PEPTIDE1{[O=C(O)CCCC(=O)[*:2]].A.A.P.L.[O=[N+]([O-])c1ccc(N[*:1])cc1]}$$$$V2.0; SMILES CC(C)C[C@H](NC(=O)[C@@H]1CCCN1C(=O)[C@H](C)NC(=O)[C@H](C)NC(=O)CCCC(=O)O)C(=O)Nc1ccc([N+](=O)[O-])cc1) [synthetic substrate]
Relative activity (%) (alkaline protease ALTP [4]): 91%

N-methoxysuccinyl- Ala-Ile-Pro-Met-p-nitroanilide (AIPM; HELM PEPTIDE1{[COC(=O)CCC(=O)[*:2]].A.I.P.M.[O=[N+]([O-])c1ccc(N[*:1])cc1]}$$$$V2.0; SMILES CC[C@H](C)[C@H](NC(=O)[C@H](C)NC(=O)CCC(=O)OC)C(=O)N1CCC[C@H]1C(=O)N[C@@H](CCSC)C(=O)Nc1ccc([N+](=O)[O-])cc1) [synthetic substrate]
Relative activity (%) (alkaline protease ALTP [4]): 90%

N-p-tosyl-Gly-Pro-Lys-p-nitroanilide ({p‑tosyl}-Gly-Pro-Lys-pNA) [To-GPK, synthetic substrate]
activity to further synthetic substrates (alkaline protease ALTP [4]): showed activity

N-succinyl-Ala-Ala-Ala-p-nitroanilide [AAA]
activity to further synthetic substrates (alkaline protease ALTP [4]): showed activity

N-succinyl-Ala-Ala-Pro-Met-p-nitroanilide (AAPM; HELM PEPTIDE1{[O=C(O)CCC(=O)[*:2]].A.A.P.M.[O=[N+]([O-])c1ccc(N[*:1])cc1]}$$$$V2.0; SMILES CSCC[C@H](NC(=O)[C@@H]1CCCN1C(=O)[C@H](C)NC(=O)[C@H](C)NC(=O)CCC(=O)O)C(=O)Nc1ccc([N+](=O)[O-])cc1) [synthetic substrate]
Relative activity (%) (alkaline protease ALTP [4]): 74%

N-succinyl-Ala-Ala-Pro-Phe-p-nitroanilide [AAPF]
Relative activity (%) (alkaline protease ALTP [4]): 100%

N-succinyl-Ala-Ala-Val-Ala-p- nitroanilide (AAVA; HELM PEPTIDE1{[O=C(O)CCC(=O)[*:2]].A.A.V.A.[O=[N+]([O-])c1ccc(N[*:1])cc1]}$$$$V2.0; SMILES CC(C)[C@H](NC(=O)[C@H](C)NC(=O)[C@H](C)NC(=O)CCC(=O)O)C(=O)N[C@@H](C)C(=O)Nc1ccc([N+](=O)[O-])cc1) [synthetic substrate]
Relative activity (%) (alkaline protease ALTP [4]): 4.6%

N-succinyl-Ala-Ala-p-nitroanilide [AA]
activity to further synthetic substrates (alkaline protease ALTP [4]): showed activity

Polyoxyethylene alkyl alcohol
inhibition of activity by surfactant (alkaline protease ALTP [3]): not inhibited
Residual activity (%) (alkaline protease ALTP [3]; surfactant 1.0%): 107%

Sodium alkane sulfonate
inhibition of activity by surfactant (alkaline protease ALTP [3]): not inhibited
Residual activity (%) (alkaline protease ALTP [3]; surfactant 10.0%): 107%

Sodium polyoxyethylene alkyl sulfate
inhibition of activity by surfactant (alkaline protease ALTP [3]): not inhibited
Residual activity (%) (alkaline protease ALTP [3]; surfactant 1.0%): 99%

Sodium α-olefin sulfonate
inhibition of activity by surfactant (alkaline protease ALTP [3]): not inhibited
Residual activity (%) (alkaline protease ALTP [3]; surfactant 1.0%): 128%

butyroxycarboxy-Leu-Ser- Thr-Arg-p-nitroanilide (butyroxycarboxy-LSTR-pNA; reading uncertain) [synthetic substrate]
activity to further synthetic substrates (alkaline protease ALTP [4]): showed activity

triton X-100
inhibition (alkaline protease ALTP [2]; 1%): little inhibited

α-sulfo-fatty acid ester
inhibition of activity by surfactant (alkaline protease ALTP [3]): not inhibited
Residual activity (%) (alkaline protease ALTP [3]; surfactant 1.0%): 106%
